Experiment [1] concerns Leishmania donovani axenic amastigote parasites. Kind of experiment: Leishmania donovani axenic amastigote proliferation assay (Cell TiterGlo luminescence, 2 day incubation). Type of experiment: cell-based. As to conditions: Leishmania donovani, read-out: L. donovani amastigotes EC50. On the technique in general: Cellular ATP, detected with luciferase, serves as a proxy for viable cell number.

Experiment [2] concerns L. donovani HU3 strain in mouse peritoneal macrophages. Put plainly: Assay for proliferation of Leishmania parasites in infected mouse peritoneal macrophages (SybrGreen staining, high-content imaging, 5 days). Type of experiment: cell-based, Leishmania donovani. As to conditions: Leishmania donovani, Peritoneal macrophage, L. donovani in mouse peritoneal macrophages, read-out: L. donovani Macrophage EC50.

Experiment [3] has as its system Trypanosoma brucei Lister 427 strain, bloodstream form. Put plainly: Assay for proliferation of kinetoplastid parasite Trypanosoma brucei (Cell Titer Glo, 48 hours). Format: cell-based. As to conditions: Trypanosoma brucei, T. brucei Lister 427 bloodstream form, read-out: T. brucei EC50. The method in brief: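 Bloodstream-form T. brucei Lister 427 in HMI-9 medium was exposed to compound (DMSO vehicle) for 48 hours at 37° C, 5% CO2. Parasite growth was read as ATP by CellTiter-Glo luminescence, with EC50 calculated from percent inhibition.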

Experiment [4] has as its system Trypanosoma cruzi amastigotes (Tulahuen strain expressing Lac-Z) cultured in 3T3 fibroblast cells. Kind of experiment: microbe, parasite or virus in culture. Format: cell-based. As to conditions: Trypanosoma cruzi, TULAHUEN, Fibroblast, T. cruzi amastigotes in 3T3 fibroblast cells, read-out: T cruzi EC50.
[5] abbreviates: axenic amastigotes, inhibition of proliferation.

The source of these data is US20160045505A1, “COMPOUNDS AND COMPOSITIONS FOR THE TREATMENT OF PARASITIC DISEASES” (NOVARTIS AG, priority 2013, published 2016).

Read-outs that look alike come from different tables or passages of the source.

The EC50 is the concentration needed to bring the measured effect to its halfway point.

Consider `Cc1nc(C)c(C(=O)Nc2ccc(F)c(-c3cn4cc(F)cnc4n3)c2)o1` [Compound 199], for which the EC50 in experiment [1] (setting [5]) came to 878 nM; in experiment [2] (inhibition of proliferation) it was 6440 nM; in experiment [3] (inhibition of proliferation) it was 1120 nM; in experiment [4] (inhibition of proliferation) it was 1060 nM.

On to `Cc1nc(C)c(C(=O)Nc2ccc(F)c(-c3cn4cc(NC(=O)c5ccccn5)cnc4n3)c2)o1` [Compound 119], for which the EC50 was determined as 56 nM in experiment [1] (setting [5]), 289 nM in experiment [2] (inhibition of proliferation), 86 nM in experiment [3] (inhibition of proliferation) and 78 nM in experiment [4] (inhibition of proliferation).

As to `Cc1nc(C)c(C(=O)Nc2cccc(-c3cn4cc(C5=CCOCC5)cnc4n3)c2)o1` [Compound 335], the EC50 turned out to be 178 nM in experiment [1] (setting [5]), 521 nM in experiment [2] (inhibition of proliferation), 114 nM in experiment [3] (inhibition of proliferation) and 407 nM in experiment [4] (inhibition of proliferation).

As for `COCCOC(=O)Nc1cnc2nc(-c3cc(NC(=O)N4CCCC4)ccc3F)cn2c1` [Compound 313], the half-maximal effective concentration (EC50) in experiment [1] (setting [5]) is 761 nM; in experiment [2] (inhibition of proliferation), greater than 50000 nM; in experiment [3] (inhibition of proliferation) it was 502 nM; in experiment [4] (inhibition of proliferation), 13300 nM.

With `CC(C)OC(=O)Nc1cnc2nc(-c3cc(NC(=O)NN)ccc3Cl)cn2c1` [Compound 257], the EC50 is 9220 nM in experiment [1] (setting [5]), greater than 33800 nM in experiment [2] (inhibition of proliferation), 4650 nM in experiment [3] (inhibition of proliferation) and 4050 nM in experiment [4] (inhibition of proliferation).

`Cc1ncc(C(=O)Nc2cnc3nc(-c4cc(NC(=O)c5oc(C)nc5C)ccc4F)cn3c2)[nH]1` [Compound 190]: the concentration for a half-maximal effect (EC50) was determined as 775 nM in experiment [1] (setting [5]), 8480 nM in experiment [2] (inhibition of proliferation), 244 nM in experiment [3] (inhibition of proliferation) and 12200 nM in experiment [4] (inhibition of proliferation).

Turning to `Cc1nc(C)c(C(=O)Nc2ccc(F)c(-c3cn4cc(-c5cnn(C6CCOCC6)c5)cnc4n3)c2)o1` [Compound 385], the EC50 in experiment [1] (L. donovani axenic amastigotes) was 268 nM; in experiment [2], greater than 36700 nM; in experiment [3] it was 369 nM; in experiment [4], 1160 nM.

For the molecule `CC(C)c1cnc2nc(-c3cc(NC(=O)N4CCC4)ccc3F)cn2c1` [Compound 411, N-(4-fluoro-3-(6-isopropylimidazo[1,2-a]pyrimidin-2-yl)phenyl)azetidine-1-carboxamide], the 50% effective concentration (EC50) in experiment [1] (L. donovani axenic amastigotes) came to 83 nM; in experiment [2], 154 nM; in experiment [3], 22 nM; in experiment [4], 46 nM.

As to `O=C(Nc1ccc(F)c(-c2cn3cc(-c4ccccc4)cnc3n2)c1)N1CC(F)(F)C1` [Compound 319], the EC50 in experiment [1] (setting [5]) is 33 nM; in experiment [2] (inhibition of proliferation), 102 nM; in experiment [3] (inhibition of proliferation), 20 nM; in experiment [4] (inhibition of proliferation), 20 nM.

On to `Cc1cc(C(=O)Nc2ccc(F)c(-c3cn4cc(NC(=O)OC(C)C)cnc4n3)c2)[nH]n1` [Compound 79], for which the EC50 in experiment [1] (setting [5]) is 7280 nM; in experiment [2] (inhibition of proliferation), greater than 50000 nM; in experiment [3] (inhibition of proliferation), 7350 nM; in experiment [4] (inhibition of proliferation), greater than 20000 nM.

Regarding `Cc1nc(C)c(C(=O)Nc2ccc(F)c(-c3cn4cc(NC(=O)C5(C)CCCO5)cnc4n3)c2)o1` (stereo not drawn) [Compound 193], the EC50 came out at 339 nM in experiment [1] (setting [5]), 717 nM in experiment [2] (inhibition of proliferation), 201 nM in experiment [3] (inhibition of proliferation) and 1090 nM in experiment [4] (inhibition of proliferation).

`Cc1ncoc1C(=O)Nc1ccc(F)c(-c2cn3cc(NC(=O)OC(C)C)cnc3n2)c1` [Compound 76]: the EC50 is 305 nM in experiment [1] (setting [5]), 4220 nM in experiment [2] (inhibition of proliferation), 348 nM in experiment [3] (inhibition of proliferation) and 636 nM in experiment [4] (inhibition of proliferation).

For the molecule `Cc1nc(C)c(C(=O)Nc2ccc(F)c(-c3cn4cc(-c5cn[nH]c5)cnc4n3)c2)o1` [Compound 386], the EC50 in experiment [1] (L. donovani axenic amastigotes) was 1500 nM; in experiment [2], greater than 50000 nM; in experiment [3] it was 1550 nM; in experiment [4], greater than 20000 nM.

For `O=C(Nc1ccc(F)c(-c2cn3cc(-c4cccnc4)cnc3n2)c1)N1CC[C@@H](F)C1` [Compound 408], the EC50 in experiment [1] (L. donovani axenic amastigotes) came out at 78 nM; in experiment [2], 246 nM; in experiment [3], 18 nM; in experiment [4], 237 nM.

In the case of `Cc1nc(C)c(C(=O)Nc2ccc(F)c(-c3cn4cc(NC(=O)[C@H]5CCCO5)cnc4n3)c2)o1` [Compound 164], the EC50 in experiment [1] (setting [5]) amounted to 280 nM; in experiment [2] (inhibition of proliferation), 913 nM; in experiment [3] (inhibition of proliferation) it was 196 nM; in experiment [4] (inhibition of proliferation), 1990 nM.

In the case of `O=C(Nc1ccc(F)c(-c2cn3cc(C4CC4)cnc3n2)c1)C1COCCO1` (stereo not drawn) [Compound 600], the EC50 in experiment [1] (L. donovani axenic amastigotes) was 1460 nM; in experiment [2], greater than 50000 nM; in experiment [3], 1780 nM; in experiment [4], 1750 nM.

For the molecule `Cc1nc(C)c(C(=O)Nc2ccc(F)c(-c3cn4cc(NC(=O)C5(C)CC(F)(F)C5)cnc4n3)c2)o1` [Compound 118], the EC50 came out at 606 nM in experiment [1] (setting [5]), 2050 nM in experiment [2] (inhibition of proliferation), 442 nM in experiment [3] (inhibition of proliferation) and 3380 nM in experiment [4] (inhibition of proliferation).

With `CC(C)OC(=O)Nc1cnc2nc(-c3cc(NC(=O)c4nccs4)ccc3Cl)cn2c1` [Compound 243], the EC50 came out at 780 nM in experiment [1] (setting [5]), 2610 nM in experiment [2] (inhibition of proliferation), 369 nM in experiment [3] (inhibition of proliferation) and 150 nM in experiment [4] (inhibition of proliferation).

Regarding `O=C(Nc1ccc(F)c(-c2cn3cc(F)cnc3n2)c1)N1CC(F)C1` [Compound 231], the EC50 in experiment [1] (setting [5]) worked out at 307 nM; in experiment [2] (inhibition of proliferation) it was 1720 nM; in experiment [3] (inhibition of proliferation), 313 nM; in experiment [4] (inhibition of proliferation) it was 420 nM.

As to `Cc1nc(C)c(C(=O)Nc2ccc(F)c(-c3cn4cc(-c5ccnn5C(C)C)cnc4n3)c2)o1` [Compound 390], the EC50 is 53 nM in experiment [1] (L. donovani axenic amastigotes), 174 nM in experiment [2], 54 nM in experiment [3] and 75 nM in experiment [4].

For the molecule `CC(C)OC(=O)Nc1cnc2nc(-c3cc(-n4cn[nH]c4=O)ccc3Cl)cn2c1` [Compound 535], the EC50 in experiment [1] (L. donovani axenic amastigotes) was greater than 25000 nM; in experiment [2], greater than 35500 nM; in experiment [3], 31100 nM; in experiment [4], greater than 20000 nM.

Consider `Cc1nc(C)c(C(=O)Nc2ccc(F)c(-c3cn4cc(C5CCN(C(=O)OC(C)(C)C)CC5)cnc4n3)c2)o1` [Compound 425, tert-butyl 4-(2-(5-(2,4-dimethyloxazole-5-carboxamido)-2-fluorophenyl)imidazo[1,2-a]pyrimidin-6-yl)piperidine-1-carboxylate], for which the EC50 in experiment [1] (L. donovani axenic amastigotes) was 140 nM; in experiment [2] it was 198 nM; in experiment [3], 97 nM; in experiment [4] it was 50 nM.

Regarding `CC(=O)N(C)C1CCN(C(=O)Nc2ccc(Cl)c(-c3cn4cc(NC(=O)OC(C)C)cnc4n3)c2)C1` (stereo not drawn) [Compound 276], the EC50 in experiment [1] (setting [5]) is greater than 25000 nM; in experiment [2] (inhibition of proliferation), greater than 50000 nM; in experiment [3] (inhibition of proliferation), 8720 nM; in experiment [4] (inhibition of proliferation), greater than 20000 nM.

`COC(C)C(=O)Nc1cnc2nc(-c3cc(NC(=O)c4oc(C)nc4C)ccc3F)cn2c1` (stereo not drawn) [Compound 177]: the EC50 in experiment [1] (setting [5]) was found to be 310 nM; in experiment [2] (inhibition of proliferation), 911 nM; in experiment [3] (inhibition of proliferation) it was 161 nM; in experiment [4] (inhibition of proliferation), 3470 nM.

Regarding `O=C(Nc1ccc(F)c(-c2cn3cc(C4CC4)cnc3n2)c1)N1CC[C@@H](F)C1` [Compound 605], the EC50 in experiment [1] (L. donovani axenic amastigotes) is 21 nM; in experiment [2], 59 nM; in experiment [3] it was 13 nM; in experiment [4], 16 nM.

As to `O=C(Nc1ccc(F)c(-c2cn3cc(Cl)cnc3n2)c1)N1CC(F)C1` [Compound 238], the EC50 is 208 nM in experiment [1] (setting [5]), 788 nM in experiment [2] (inhibition of proliferation), 117 nM in experiment [3] (inhibition of proliferation) and 233 nM in experiment [4] (inhibition of proliferation).

On to `O=C(Nc1ccc(F)c(-c2cn3cc(OCCN4CCOCC4)cnc3n2)c1)N1CCCC1` [Compound 563], for which the EC50 was 14200 nM in experiment [1] (L. donovani axenic amastigotes), 8500 nM in experiment [2], greater than 50000 nM in experiment [3] and 6700 nM in experiment [4].

Consider `O=C(Nc1ccc(Cl)c(-c2cn3cc(N4CCCC4)cnc3n2)c1)N1CCCC1` [Compound 495], for which the EC50 in experiment [1] (L. donovani axenic amastigotes) was 235 nM; in experiment [2], 233 nM; in experiment [3] it was 36 nM; in experiment [4], 55 nM.

In the case of `Cc1nc(C)c(C(=O)Nc2ccc(F)c(-c3cn4cc(-c5cn(C(C)C)cn5)cnc4n3)c2)o1` [Compound 428], the EC50 is 100 nM in experiment [1] (L. donovani axenic amastigotes), 291 nM in experiment [2], 161 nM in experiment [3] and 451 nM in experiment [4].

`Cc1nc(C)c(C(=O)Nc2ccc(F)c(-c3cn4cc(-c5cn(C)cn5)cnc4n3)c2)o1` [Compound 426, N-(4-fluoro-3-(6-(1-methyl-1H-imidazol-4-yl)imidazo[1,2-a]pyrimidin-2-yl)phenyl)-2,4-dimethyloxazole-5-carboxamide]: the EC50 in experiment [1] (L. donovani axenic amastigotes) came to 16 nM; in experiment [2], 182 nM; in experiment [3], 378 nM; in experiment [4], 124 nM.

Regarding `O=C(Nc1ccc(F)c(-c2cn3cc(C4CC4)cnc3n2)c1)[C@H]1CC[C@@H](O)CC1` [Compound 598], the EC50 in experiment [1] (L. donovani axenic amastigotes) was 2770 nM; in experiment [2], 10300 nM; in experiment [3], 4360 nM; in experiment [4], 2550 nM.

`Cc1nc(C)c(C(=O)Nc2ccc(F)c(-c3cn4cc(-c5cnn(C6CCN(C(=O)OC(C)(C)C)CC6)c5)cnc4n3)c2)o1` [Compound 384]: the half-maximal effective concentration (EC50) in experiment [1] (L. donovani axenic amastigotes) came to 95 nM; in experiment [2], 616 nM; in experiment [3] it was 143 nM; in experiment [4], 115 nM.

Take `Cc1nc(C(=O)Nc2cnc3nc(-c4cc(NC(=O)c5oc(C)nc5C)ccc4F)cn3c2)c(C)o1` [Compound 162]: the EC50 in experiment [1] (setting [5]) came to 65 nM; in experiment [2] (inhibition of proliferation), 540 nM; in experiment [3] (inhibition of proliferation), 52 nM; in experiment [4] (inhibition of proliferation), 127 nM.
